Laboratory results as given in the supplement of paper PMC10307832.

Legend:
Assay in all cases: relative viability (nuclei count vs DMSO), 5 days (fraction); higher = more cells survive
[1] = compound: CC1=CC=C(C=C1)C(=O)CN2C3=C(CCCC3)SC2=N [Pifithrin_alpha] + COc1cccc2cc(-c3nc([C@H]4CC[C@H](C(=O)O)CC4)n4ncnc(N)c34)[nH]c12 [OSI-027] (partner 0.5 µM)
Procedure, shortened: (§1)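 Nuclei were stained with Hoechst during a one-step fixation (final 0.05% Triton X-100, 1% formaldehyde, 1 ug/ml Hoechst) carried out 5 days after dosing, then counted on 4× images. The cells, lung cancer lines in 1536-well plates, had been dosed by pin tool the day after seeding with one drug alone or a fixed anchor-drug dose plus five library-drug doses (not always all listed) in √10 steps. Relative viability is the nuclei count in treated wells divided by that in vehicle wells, and each value is the median of duplicate plates.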

Axitinib + AZD7762 = compound: CNC(=O)c1ccccc1Sc1ccc2c(/C=C/c3ccccn3)n[nH]c2c1 [Axitinib] + NC(=O)Nc1cc(-c2cccc(F)c2)sc1C(=O)N[C@H]1CCCNC1 [AZD7762] (partner 0.2 µM)
Procedure, shortened: as §1

Bemcentinib + OSI-027 = compound: Nc1nc(Nc2ccc3c(c2)CC[C@@H](N2CCCC2)CC3)nn1-c1cc2c(nn1)-c1ccccc1CCC2 [Bemcentinib] + COc1cccc2cc(-c3nc([C@H]4CC[C@H](C(=O)O)CC4)n4ncnc(N)c34)[nH]c12 [OSI-027] (partner 0.5 µM)
Procedure, shortened: as §1

Bemcentinib + Phenformin = compound: Nc1nc(Nc2ccc3c(c2)CC[C@@H](N2CCCC2)CC3)nn1-c1cc2c(nn1)-c1ccccc1CCC2 [Bemcentinib] + N=C(N)NC(=N)NCCc1ccccc1 [Phenformin] (partner 250 µM)
Procedure, shortened: as §1

Cell Line	relative viability ([1]; first compound 1 µM)	relative viability ([1]; first compound 3.162 µM)	relative viability ([1]; first compound 10 µM)	relative viability ([1]; first compound 31.62 µM)	relative viability ([1]; first compound 100 µM)	relative viability (Axitinib + AZD7762; first compound 0.005 µM)	relative viability (Axitinib + AZD7762; first compound 0.01581 µM)	relative viability (Axitinib + AZD7762; first compound 0.05 µM)	relative viability (Axitinib + AZD7762; first compound 0.1581 µM)	relative viability (Axitinib + AZD7762; first compound 0.5 µM)	relative viability (Bemcentinib + OSI-027; first compound 0.04 µM)	relative viability (Bemcentinib + OSI-027; first compound 0.1265 µM)	relative viability (Bemcentinib + OSI-027; first compound 0.4 µM)	relative viability (Bemcentinib + OSI-027; first compound 1.265 µM)	relative viability (Bemcentinib + OSI-027; first compound 4 µM)	relative viability (Bemcentinib + Phenformin; first compound 0.04 µM)	relative viability (Bemcentinib + Phenformin; first compound 0.1265 µM)	relative viability (Bemcentinib + Phenformin; first compound 0.4 µM)	relative viability (Bemcentinib + Phenformin; first compound 1.265 µM)	relative viability (Bemcentinib + Phenformin; first compound 4 µM)
NCI-H358	0.761	0.797	0.658	0.629	0.528	0.529	0.509	0.626	0.512	0.635	0.799	0.952	0.837	0.99	0.939	0.321	0.348	0.325	0.355	0.39
NCI-H1944	0.346	0.362	0.351	0.252	0.293	0.586	0.441	0.506	0.447	0.541	0.43	0.483	0.407	0.413	0.41	0.202	0.211	0.219	0.217	0.206
NCI-H1792	–	0.668	0.538	0.391	0.458	0.72	0.629	0.777	0.755	1.03	0.85	0.884	0.881	1	0.768	0.293	0.293	0.326	0.193	0.248
ABC-1	0.358	0.526	0.35	0.299	0.326	–	0.725	0.896	0.822	0.461	0.435	0.402	0.469	0.683	0.507	0.191	0.267	0.23	0.253	0.239
PC-3 [JPC-3]	0.676	0.747	0.574	0.545	0.618	0.835	–	0.933	0.765	0.781	0.765	0.727	0.829	0.739	0.752	0.477	0.454	0.473	0.497	0.448
LU99A	0.266	0.27	0.273	0.23	0.281	0.433	0.451	0.397	0.39	0.415	0.283	0.279	0.28	0.285	0.275	0.806	0.856	0.835	0.801	0.827
CAL-12T	0.455	0.592	0.457	–	0.444	0.623	0.576	0.615	0.564	0.561	0.6	0.912	0.77	0.769	0.755	0.492	0.632	0.611	0.579	0.601
NCI-H2087	0.417	0.499	0.483	–	0.605	1.37	1.42	1.47	1.25	1.43	0.495	0.687	0.589	0.544	0.571	0.435	0.481	0.52	0.492	0.487
LCLC-97TM1	0.706	0.689	0.631	0.252	0.6	0.22	0.327	0.218	0.281	0.374	0.649	0.527	0.538	0.542	0.598	0.471	0.483	0.407	0.383	0.396
BEN	0.294	0.278	0.306	0.286	0.266	0.633	0.622	0.694	0.68	0.618	0.292	0.288	0.296	0.345	0.322	0.242	0.289	0.269	0.255	0.295
NCI-H727	0.394	0.577	0.579	–	0.404	0.488	0.554	0.629	0.738	0.584	0.552	0.631	0.645	0.592	0.576	0.626	0.709	0.493	0.363	0.671
NCI-H1915	0.567	0.628	–	–	0.584	0.743	0.671	0.71	0.713	0.717	0.625	0.661	0.635	0.59	0.696	0.376	0.375	0.372	0.383	0.353
HARA	–	0.482	0.58	–	0.441	0.315	0.447	0.369	0.348	0.313	0.479	0.758	0.589	0.453	0.469	0.41	0.541	0.539	0.434	0.498
EMC-BAC-2	0.329	0.386	0.358	–	0.353	1.07	1.1	1.06	1.1	1.11	0.372	0.369	0.427	0.37	0.388	0.515	0.516	0.556	0.507	0.514
HCC-44	0.39	0.391	0.481	0.324	0.268	1.07	1.04	1.01	0.992	1.03	0.452	0.661	0.446	0.483	0.511	0.155	0.28	0.175	0.187	0.149
LOU-NH91	0.592	0.692	0.703	0.655	0.595	0.806	0.723	0.814	0.761	0.78	0.697	0.703	0.721	0.749	0.775	0.637	0.663	0.73	0.748	0.673
NCI-H3122	1	1.26	1.01	–	0.786	0.976	0.991	0.892	0.92	1.04	–	1.08	0.978	1.11	0.983	–	0.412	0.366	0.358	0.381
